Data published in ChEMBL document CHEMBL1137464, “Novel steroidal saponins, Sch 725737 and Sch 725739, from a marine starfish, Novodinia antillensis” (Bioorg Med Chem Lett, 2007).

Tests used:
[1] = target: T1, Sodium channel protein type 10 subunit alpha (Homo sapiens, UniProt Q9Y5Y9); assay: Inhibition of sodium channel NaV1.8 expressed in rat ND7/23 cells by FLIPR assay; format: cell-based
Target sequence in this assay (Q9Y5Y9 whole entry): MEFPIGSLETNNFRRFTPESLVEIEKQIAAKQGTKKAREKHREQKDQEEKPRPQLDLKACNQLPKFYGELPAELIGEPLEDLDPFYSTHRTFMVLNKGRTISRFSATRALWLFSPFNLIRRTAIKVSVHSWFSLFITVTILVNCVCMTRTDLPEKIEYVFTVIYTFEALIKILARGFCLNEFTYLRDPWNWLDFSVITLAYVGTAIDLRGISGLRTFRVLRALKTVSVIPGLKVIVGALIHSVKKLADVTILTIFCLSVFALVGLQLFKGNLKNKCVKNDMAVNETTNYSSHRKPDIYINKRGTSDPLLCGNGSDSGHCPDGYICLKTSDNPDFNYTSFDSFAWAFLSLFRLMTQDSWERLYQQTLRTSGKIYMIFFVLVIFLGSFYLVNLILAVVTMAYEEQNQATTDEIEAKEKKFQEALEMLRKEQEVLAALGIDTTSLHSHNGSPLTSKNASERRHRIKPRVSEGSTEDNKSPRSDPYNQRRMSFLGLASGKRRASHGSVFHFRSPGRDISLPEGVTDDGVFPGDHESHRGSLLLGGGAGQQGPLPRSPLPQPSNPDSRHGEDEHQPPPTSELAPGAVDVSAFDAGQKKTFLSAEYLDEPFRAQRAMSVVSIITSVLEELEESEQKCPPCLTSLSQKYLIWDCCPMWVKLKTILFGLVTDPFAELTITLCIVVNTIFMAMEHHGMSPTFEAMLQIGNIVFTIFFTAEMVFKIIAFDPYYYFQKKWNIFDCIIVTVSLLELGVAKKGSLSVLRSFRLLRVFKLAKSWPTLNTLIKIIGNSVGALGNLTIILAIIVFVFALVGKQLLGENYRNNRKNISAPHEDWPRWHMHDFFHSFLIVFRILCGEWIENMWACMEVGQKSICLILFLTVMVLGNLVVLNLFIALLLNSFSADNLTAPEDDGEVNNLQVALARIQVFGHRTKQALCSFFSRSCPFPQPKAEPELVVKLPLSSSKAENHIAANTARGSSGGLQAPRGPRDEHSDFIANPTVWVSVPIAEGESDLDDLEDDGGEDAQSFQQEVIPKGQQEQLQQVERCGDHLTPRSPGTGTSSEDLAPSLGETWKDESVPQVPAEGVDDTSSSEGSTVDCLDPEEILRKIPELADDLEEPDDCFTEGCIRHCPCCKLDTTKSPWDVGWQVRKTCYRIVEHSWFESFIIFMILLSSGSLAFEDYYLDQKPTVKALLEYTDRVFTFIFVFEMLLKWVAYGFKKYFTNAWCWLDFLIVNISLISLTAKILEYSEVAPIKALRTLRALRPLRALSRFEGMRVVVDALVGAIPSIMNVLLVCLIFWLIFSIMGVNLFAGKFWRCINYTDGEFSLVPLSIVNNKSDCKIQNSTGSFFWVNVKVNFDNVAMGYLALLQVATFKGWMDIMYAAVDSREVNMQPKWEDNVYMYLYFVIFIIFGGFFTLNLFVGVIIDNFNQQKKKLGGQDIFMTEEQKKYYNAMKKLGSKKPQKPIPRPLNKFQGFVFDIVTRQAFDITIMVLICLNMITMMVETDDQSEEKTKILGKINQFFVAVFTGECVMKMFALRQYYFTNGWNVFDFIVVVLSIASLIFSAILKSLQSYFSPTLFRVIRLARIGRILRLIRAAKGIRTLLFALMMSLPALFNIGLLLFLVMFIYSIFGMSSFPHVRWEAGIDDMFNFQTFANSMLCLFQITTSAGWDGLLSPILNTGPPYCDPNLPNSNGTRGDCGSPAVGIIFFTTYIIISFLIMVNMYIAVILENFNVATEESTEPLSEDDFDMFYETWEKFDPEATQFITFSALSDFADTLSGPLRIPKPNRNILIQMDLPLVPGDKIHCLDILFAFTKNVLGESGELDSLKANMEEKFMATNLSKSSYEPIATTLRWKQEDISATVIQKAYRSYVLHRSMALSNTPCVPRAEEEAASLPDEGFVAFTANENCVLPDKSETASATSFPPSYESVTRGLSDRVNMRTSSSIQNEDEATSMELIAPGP

[2] = target: T1, Sodium channel protein type 10 subunit alpha; assay: Inhibition of sodium channel NaV1.8 at 20 ug/mL by HTS assay
Target sequence in this assay (Q9Y5Y9 whole entry, looked up): as the sequence (Q9Y5Y9 whole entry) above

IC50 [1]	inhibition [2]	SMILES
9 µM	88%	CC(C)CCC[C@@](C)(O)[C@H]1CC[C@H]2[C@@H]3C[C@H](O[C@@H]4O[C@H](C)[C@@H](O)[C@H](O[C@@H]5OC[C@@H](O[C@@H]6O[C@H](C)[C@@H](O[C@@H]7OC[C@H](O)[C@H](O)[C@H]7O)[C@H](O)[C@H]6O[C@@H]6O[C@H](C)[C@H](O)[C@H](O)[C@H]6O)[C@H](O)[C@H]5O[C@@H]5O[C@H](C)[C@@H](O)[C@H](O)[C@H]5O)[C@H]4O)[C@H]4C[C@@H](OS(=O)(=O)O)CC[C@]4(C)C3=CC[C@@]21C
	88%	CC(C)CCC[C@@](C)(O)[C@H]1CC[C@H]2[C@@H]3C[C@H](O[C@@H]4O[C@H](C)[C@@H](O)[C@H](O[C@@H]5O[C@H](C)[C@@H](O[C@@H]6O[C@H](C)[C@@H](O[C@@H]7OC[C@H](O)[C@H](O)[C@H]7O)[C@H](O)[C@H]6O[C@@H]6O[C@H](C)[C@H](O)[C@H](O)[C@H]6O)[C@H](O)[C@H]5O[C@@H]5O[C@H](C)[C@@H](O)[C@H](O)[C@H]5O)[C@H]4O)[C@H]4C[C@@H](OS(=O)(=O)O)CC[C@]4(C)C3=CC[C@@]21C
